Patent US20160046610A1, “3-HETEROARYL SUBSTITUTED INDAZOLES” (BAYER PHARMA AKTIENGESELLSCHAFT, priority 2013, published 2016)
Where two headings read alike, the source gives them in different places.

What was measured:
[1] = test system: HeLa cell line; assay: Proliferation assay (HeLa cell line), crystal violet staining; type: cell-based; settings: Homo sapiens, 96 h, read-out: Biological Assay 2: Proliferation assay (HeLa cell line) median IC50
Protocol: Cultivated tumor cells (cells were ordered from ATCC, except HeLa-MaTu and HeLa-MaTu-ADR, which were ordered from EPO-GmbH, Berlin) were plated at a density of 1000 to 5000 cells/well, depending on the growth rate of the respective cell line, in a 96-well multititer plate in 200 μL of their respective growth medium supplemented 10% fetal calf serum. After 24 hours, the cells of one plate (zero-point plate) were stained with crystal violet (see below), while the medium of the other plates was replaced by fresh culture medium (200 μL), to which the test substances were added in various concentrations (0 μM, as well as in the range of 0.001-10 μM; the final concentration of the solvent dimethyl sulfoxide was 0.5%). The cells were incubated for 4 days in the presence of test substances. Cell proliferation was determined by staining the cells with crystal violet: the cells were fixed by adding 20 μl/measuring point of an 11% glutaric aldehyde solution for 15 minutes at room temperature. After three washing cycles of the fixed cells with water, the plates were dried at room temperature. The cells were stained by adding 100 μl/measuring point of a 0.1% crystal violet solution (pH 3.0). After three washing cycles of the stained cells with water, the plates were dried at room temperature. The dye was dissolved by adding 100 μl/measuring point of a 10% acetic acid solution. Absorption was determined by photometry at a wavelength of 595 nm. The change of cell number, in percent, was calculated by normalization of the measured values to the absorption values of the zero-point plate (=0%) and the absorption of the untreated (0 μm) cells (=100%). The IC50 values were determined by means of a 4 parameter fit using the company's own software.

[2] = target: T1, catalytic domain of human Bub1 (amino acids 704-1085) (Homo sapiens, UniProt O43683); assay: Bub1 kinase assay (TR-FRET); type: biochemical
T1 construct: catalytic domain of human Bub1 (amino acids 704-1085); His6 (N); made in house; host or cells: Hi5 insect cells
T1 sequence (O43683 704-1085): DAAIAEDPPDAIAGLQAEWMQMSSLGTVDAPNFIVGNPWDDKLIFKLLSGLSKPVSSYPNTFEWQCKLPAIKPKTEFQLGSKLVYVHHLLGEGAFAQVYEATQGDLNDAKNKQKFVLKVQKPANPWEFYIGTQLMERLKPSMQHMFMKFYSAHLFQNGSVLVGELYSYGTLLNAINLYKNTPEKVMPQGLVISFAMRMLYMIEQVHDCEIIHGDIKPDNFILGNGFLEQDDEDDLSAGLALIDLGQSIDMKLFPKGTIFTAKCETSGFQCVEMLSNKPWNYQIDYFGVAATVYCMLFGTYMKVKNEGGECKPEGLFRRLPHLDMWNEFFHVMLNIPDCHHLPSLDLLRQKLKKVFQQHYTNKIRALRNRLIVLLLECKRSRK
Protocol: To this end, 100-fold concentrated compound solutions (in DMSO) were previously prepared by serial dilution (1:3.4) of 2 mM stocks in a clear low volume 384-well source microtiter plate (Greiner Bio-One, Frickenhausen, Germany), from which 50 nl of compounds were transferred into a black low volume test microtiter plate from the same supplier. […] The resulting mixture (5 μL final volume) was incubated at 22° C. during 60 min., and the reaction was stopped by the addition of 5 μL of an aqueous EDTA-solution (50 mM EDTA, in 100 mM HEPES pH 7.5 and 0.2% (w/v) bovine serum albumin) which also contained the TR-FRET detection reagents (0.2 μM streptavidin-XL665 [Cisbio Bioassays, Codolet, France] and 1 nM anti-phosho-Serine antibody [Merck Millipore, cat. #35-001] and 0.4 nM LANCE EU-W1024 labeled anti-mouse IgG antibody [Perkin-Elmer, product no. AD0077, alternatively a Terbium-cryptate-labeled anti-mouse IgG antibody from Cisbio Bioassays can be used]). The stopped reaction mixture was further incubated 1 h at 22° C. in order to allow the formation of complexes between peptides and detection reagents. Subsequently, the amount of product was evaluated by measurement of the resonance energy transfer from the Eu-chelate-antibody complex recognizing the Phosphoserine residue to the streptavidin-XL665 bound to the biotin moiety of the peptide. […] IC50 values were calculated by fitting the normalized inhibition data to a 4-parameter logistic equation (Minimum, Maximum, IC50, Hill; Y=Max+(Min−Max)/(1+(X/IC50)Hill)).

[3] = TR-FRET, recombinant catalytic domain of human Bub1, ATP 10 μM, peptide substrate 1 μM, median value, read-out: Biological Assay 1: Bub1 kinase assay median IC50
[4] = HeLa cells, incubated for 4 days with test substance, crystal violet staining, median value

IC50 ([1]; HeLa) | IC50 [2, 3] | IC50 [1, 4] | IC50 [2] | Compound
> 10000 nM | 920 nM |  |  | CCOc1cc(F)c(Cn2nc(-c3ncc(OC)c(Nc4ccccc4C(N)=O)n3)c3ccccc32)c(F)c1 [Example 2-12-1, 2-({2-[1-(4-ethoxy-2,6-difluorobenzyl)-1H-indazol-3-yl]-5-methoxypyrimidin-4-yl}amino)benzamide]
2400 nM | 17 nM |  |  | CCOc1cc(F)c(Cn2nc(-c3cc(Nc4cn[nH]c4)ccn3)c3ccccc32)c(F)c1 [Example 2-7-1, 2-[1-(4-ethoxy-2,6-difluorobenzyl)-1H-indazol-3-yl]-N-(1H-pyrazol-4-yl)pyridin-4-amine]
> 10000 nM | 14 nM |  |  | CCOc1cc(F)c(Cn2nc(-c3cc(Nc4ccncn4)ccn3)c3ccccc32)c(F)c1 [Example 2-5-1, N-{2-[1-(4-ethoxy-2,6-difluorobenzyl)-1H-indazol-3-yl]pyridin-4-yl}pyrimidin-4-amine]
> 10000 nM | 13 nM |  |  | Oc1cnc(-c2nn(Cc3ccccc3F)c3ccccc23)nc1Nc1ccncn1 [Example 2-9-1, 2-[1-(2-fluorobenzyl)-1H-indazol-3-yl]-4-(pyrimidin-4-ylamino)pyrimidin-5-ol]
> 10000 nM | 11 nM |  |  | CCOc1cc(F)c(Cn2nc(-c3ncc(OC)c(Nc4ccnnc4)n3)c3ccccc32)c(F)c1 [Example 2-2-1, N-{2-[1-(4-ethoxy-2,6-difluorobenzyl)-1H-indazol-3-yl]-5-methoxypyrimidin-4-yl}pyridazin-4-amine]
5000 nM | 25 nM |  |  | CCOc1cc(F)c(Cn2nc(-c3cc(Nc4ccncn4)ncn3)c3ccccc32)c(F)c1 [Example 2-2-3, 6-[1-(4-ethoxy-2,6-difluorobenzyl)-1H-indazol-3-yl]-N-(pyrimidin-4-yl)pyrimidin-4-amine]
6900 nM | 240 nM |  |  | CCOc1cc(F)c(Cn2nc(-c3ncc(OC)c(Nc4ccc(O)cc4)n3)c3ccccc32)c(F)c1 [Example 2-4-1, 4-({2-[1-(4-ethoxy-2,6-difluorobenzyl)-1H-indazol-3-yl]-5-methoxypyrimidin-4-yl}amino)phenol]
1200 nM | 6800 nM |  |  | CCOc1cc(F)c(Cn2nc(-c3ncc(OC)c(Nc4ccc(F)cc4C(=O)NC)n3)c3ccccc32)c(F)c1 [Example 2-12-3, 2-({2-[1-(4-ethoxy-2,6-difluorobenzyl)-1H-indazol-3-yl]-5-methoxypyrimidin-4-yl}amino)-5-fluoro-N-methylbenzamide]
> 10000 nM | 22 nM |  |  | CCOc1cc(F)c(Cn2nc(-c3ncc(OC)c(Nc4ccncn4)n3)c3ccccc32)c(F)c1 [Example 2-2-2, 2-[1-(4-ethoxy-2,6-difluorobenzyl)-1H-indazol-3-yl]-5-methoxy-N-(pyrimidin-4-yl)pyrimidin-4-amine]

Further lines, the molecule ahead of its results:

Compound | IC50 ([1]; HeLa) | IC50 [2, 3] | IC50 [1, 4] | IC50 [2]
CCOc1cc(F)c(Cn2nc(-c3ncc(OC)c(Nc4cn[nH]c4)n3)c3ccccc32)c(F)c1 [Example 2-10-2, 2-[1-(4-ethoxy-2,6-difluorobenzyl)-1H-indazol-3-yl]-5-methoxy-N-(1H-pyrazol-4-yl)pyrimidin-4-amine] | > 10000 nM | 4.7 nM |  | 
COc1ccc(Cn2nc(-c3ncc(OC)c(Nc4cccnc4)n3)c3ccccc32)cc1 [Example 2-1-3, 5-methoxy-2-[1-(4-methoxybenzyl)-1H-indazol-3-yl]-N-(pyridin-3-yl)pyrimidin-4-amine] | 3600 nM | 2600 nM |  | 
CCOc1cc(F)c(Cn2nc(-c3cc(Nc4ncncn4)ccn3)c3ccccc32)c(F)c1 [Example 2-5-2, N-{2-[1-(4-ethoxy-2,6-difluorobenzyl)-1H-indazol-3-yl]pyridin-4-yl}-1,3,5-triazin-2-amine] | 2900 nM | 21 nM |  | 
Fc1ccc(Cn2nc(-c3cc(Nc4ccncn4)ccn3)c3ccccc32)c(F)c1 [Example 2-11-1, N-{2-[1-(2,4-difluorobenzyl)-1H-indazol-3-yl]-pyridin-4-yl}pyrimidin-4-amine] |  |  | > 10000 nM | 66 nM
Fc1cccc(F)c1Cn1nc(-c2cc(Nc3ccncn3)ccn2)c2ccccc21 [Example 2-6-2, N-{2-[1-(2,6-difluorobenzyl)-1H-indazol-3-yl]pyridin-4-yl}pyrimidin-4-amine] |  |  | > 10000 nM | 13 nM
CCOc1cc(F)c(Cn2nc(-c3ncc(OC)c(Nc4ccc(F)cc4C(N)=O)n3)c3ccccc32)c(F)c1 [Example 2-12-4, 2-({2-[1-(4-ethoxy-2,6-difluorobenzyl)-1H-indazol-3-yl]-5-methoxypyrimidin-4-yl}amino)-5-fluorobenzamide] | 2400 nM | 110 nM |  | 
CCCc1ccc(Cn2nc(-c3cc(Nc4ccncn4)ccn3)c3ccccc32)cc1 [Example 2-6-3, N-{2-[1-(4-propylbenzyl)-1H-indazol-3-yl]pyridin-4-yl}pyrimidin-4-amine] |  |  | 6900 nM | 28 nM
CCOc1cc(F)c(Cn2nc(-c3ncc(OC)c(Nc4cncc(C(=O)NC)n4)n3)c3ccccc32)c(F)c1 [Example 2-2-6, 6-({2-[1-(4-ethoxy-2,6-difluorobenzyl)-1H-indazol-3-yl]-5-methoxypyrimidin-4-yl}amino)-N-methylpyrazine-2-carboxamide] | > 10000 nM | 660 nM |  | 
CCOc1cc(F)c(Cn2nc(-c3ncc(OC)c(Nc4ccccc4)n3)c3ccccc32)c(F)c1 [Example 2-1-1, 2-[1-(4-ethoxy-2,6-difluorobenzyl)-1H-indazol-3-yl]-5-methoxy-N-phenylpyrimidin-4-amine] | > 10000 nM | 1500 nM |  | 
COc1ccc(Cn2nc(-c3ncc(OC)c(Nc4cn[nH]c4)n3)c3ccccc32)cc1 [Example 2-10-1, 5-methoxy-2-[1-(4-methoxybenzyl)-1H-indazol-3-yl]-N-(1H-pyrazol-4-yl)pyrimidin-4-amine] | 3400 nM |  |  | 20 nM
CCOc1cc(F)c(Cn2nc(-c3ncc(OC)c(Nc4ccccc4C(=O)NC)n3)c3ccccc32)c(F)c1 [Example 2-12-2, 2-({2-[1-(4-ethoxy-2,6-difluorobenzyl)-1H-indazol-3-yl]-5-methoxypyrimidin-4-yl}amino)-N-methylbenzamide] | 1100 nM | 1100 nM |  | 
CCCc1ccc(Cn2nc(-c3ncc(OC)c(Nc4ccncn4)n3)c3ccccc32)cc1 [Example 2-3-1, 5-methoxy-2-[1-(4-propylbenzyl)-1H-indazol-3-yl]-N-(pyrimidin-4-yl)pyrimidin-4-amine] | > 10000 nM | 44 nM |  | 
CCOc1cc(F)c(Cn2nc(-c3cc(Nc4cnsc4)ccn3)c3ccccc32)c(F)c1 [Example 2-5-3, 2-[1-(4-ethoxy-2,6-difluorobenzyl)-1H-indazol-3-yl]-N-(1,2-thiazol-4-yl)pyridin-4-amine] | > 10000 nM | 720 nM |  | 
